This note sets out measurements from US4267184A, “Antiinflammatory 4,5-diaryl-2-(substituted-thio)pyrroles and their corresponding sulfoxides and sulfones” (E. I. Du Pont de Nemours and Company, priority 1980, dated 1981).

Molecules are shown by their SMILES.

For experiment [1], the system named is Adjuvant-Induced Arthritis in Rats. Kind of experiment: Established Adjuvant-Induced Arthritis in Rats. Type of experiment: in vivo, Charles River Lewis male rats. Conditions: for ED50: 168 h, oral gavage daily for 7 days, ED50% decrease from control paw volume; for Adjuvant Arthritis, value in parenthesis (percent reduction in paw volume/dose): dose 27 (unit not given). On the procedure:
A procedure for detecting and comparing the antiinflammatory activity of compounds in this series and standard drugs for which there is a good correlation with human efficacy is the adjuvant-induced arthritis test in rats.
(§1) The test procedures employed for determining antiinflammatory and analgesic activity are described below with test data included in Tables VII and VIII.
Charles River Lewis male rats (130-150 grams) are injected subcutaneously in plantar area of the right hind paw with 0.1 ml of adjuvant (Difco heat-killed, lyophilized Mycobacterium butyricum suspended in mineral oil 5 mg/ml). 20 Non-arthritic controls are injected with mineral oil. The animals are held for 2 weeks to allow development of arthritis. Paw volumes (uninjected, left hind paw) are measured and the adjuvant injected rats are culled and distributed to treatment groups of 10 of equal disease severity. Non-arthritic controls are distributed to 2 groups of 10. The rats are given oral doses of compound or PVA-Acacia (Polyvinyl Alcohol 1%, Gum Acacia, U.S.P. 5%, Methylparaben 0.5%) (10 ml/kg) by gavage on that day and on the 6 following days. One day after the last dose the paw volumes (uninjected, left hind paw) are measured using a Ugo Basile Volume Differential Meter Model 7101. [formula]
Dose-response regression lines of the % decrease are plotted on semi-log paper by visual fit and the ED50% decrease from control paw volume is determined by inspection.

Experiment [2] concerns phenylquinone writhing in mice. Briefly: Phenylquinone Writhing Test (analgesic activity). Type of experiment: in vivo, female white mice. The note with it: Mus musculus, oral, phenylquinone i.p., effective analgesic dose for 50% of the mice.
Source text: A procedure for detecting and comparing the analgesic activity of compounds in this series and standard drugs for which there is a good correlation with human efficacy is the phenylquinone writhing test.
as §1
The phenylquinone writhing test, modified from Siegmund, et al., Proc. Soc. Exp. Biol. Med. 95, 729 (1957), was employed. A test compound suspended in 1% methylcellulose was given orally to fasted (17-21 hours) female white mice, 5-20 animals per double blind test. Aqueous (0.01% phenyl-p-benzoquinone) phenylquinone was injected intraperitoneally at 24 minutes later using 0.20 ml per mouse. […] The effective analgesic dose for 50% of the mice (ED50) was calculated by the moving average method of Thompson, W. R., Bact. Rev. 11, 115-145 (1947).
(In general: An intraperitoneal irritant provokes the stretching counted in writhing tests.)

Setting [3] is: Rattus norvegicus, Table VII, oral, read-out: percent reduction in paw volume at the indicated dose.

For the molecule `Fc1ccc(-c2cc(SC(F)(F)C(F)F)[nH]c2-c2ccc(F)cc2)cc1` [Example 35, 4,5-Bis(4-fluorophenyl)-2-(1,1,2,2-tetrafluoroethylthio)pyrrole], the ED50 – broadly, the dose that gives a 50% effect, or the effect in half of the subjects – in experiment [1] (Rattus norvegicus, Table VII) was 4 mg/kg; in experiment [2] (Table VII), > 108 mg/kg.
Take `Fc1ccc(-c2[nH]c(SC(F)(F)F)cc2-c2ccccc2)cc1` [Example 23]: the “Adjuvant Arthritis, value in parenthesis (percent reduction in paw volume/dose)” value in experiment [1] (Table VIII, oral) amounted to 27%. Moreover, in experiment [2] (Table VIII), the ED50 was > 108 mg/kg.
For the molecule `Cc1c(SC(F)(F)F)[nH]c(-c2ccc(Cl)cc2)c1-c1ccc(Cl)cc1` [Example 30], the ED50 in experiment [1] (Rattus norvegicus, Table VIII) is 2 mg/kg; in experiment [2] (Table VIII), > 108 mg/kg.
`FC(F)C(F)(F)Sc1cc(-c2ccc(Cl)cc2)c(-c2ccc(Cl)cc2)[nH]1` [Example 40]: in experiment [1] (setting [3]), the inhibition in vivo at 9 mg/kg came out at 36%. In experiment [2] (Table VII), the ED50 was > 108 mg/kg.
With `CCOC(=O)n1c(SC(F)(F)F)cc(-c2ccc(F)cc2)c1-c1ccc(F)cc1` [Example 75, 1-Ethoxycarbonyl-4,5-bis(4-fluorophenyl)-2-(trifluoromethylthio)pyrrole], the ED50 in experiment [1] (Rattus norvegicus, Table VIII) was 1.9 mg/kg; in experiment [2] (Table VIII) it was > 108 mg/kg.
With `FC(F)(F)Sc1cc(-c2cccc(Cl)c2)c(-c2cccc(Cl)c2)[nH]1` [Example 25], the ED50 was 25 mg/kg in experiment [1] (Rattus norvegicus, Table VIII) and > 108 mg/kg in experiment [2] (Table VIII).
On to `Fc1ccc(-c2cc(SC(F)(F)F)[nH]c2-c2cccs2)cc1` [Example 27], for which the ED50 in experiment [1] (Rattus norvegicus, Table VIII) is ~27 mg/kg; in experiment [2] (Table VIII) it was > 108 mg/kg.
For the molecule `Fc1ccc(-c2[nH]c(SC(F)(F)F)cc2-c2ccc(Cl)cc2)cc1` [Example 6], the ED50 in experiment [1] (Rattus norvegicus, Table VII) was 2 mg/kg; in experiment [2] (Table VII), > 108 mg/kg.
Regarding `CS(=O)(=O)c1cc(-c2ccc(Cl)cc2)c(-c2ccc(Cl)cc2)[nH]1` [Example 62], the ED50 in experiment [1] (Rattus norvegicus, Table VII) is 1.5 mg/kg; in experiment [2] (Table VII) it was > 108 mg/kg.
In the case of `COc1ccc(-c2cc(SC)[nH]c2-c2ccc(OC)cc2)cc1` [Example 36], the ED50 in experiment [1] (Rattus norvegicus, Table VII) is 5 mg/kg; in experiment [2] (Table VII) it was > 130 mg/kg.
The corresponding values for `O=S(=O)(c1cc(-c2ccc(Cl)cc2)c(-c2ccc(Cl)cc2)[nH]1)C(F)(F)F` [Example 58] are 1.7 mg/kg and < 130 mg/kg.
On to `FC(F)(F)Sc1cc(-c2ccc(Cl)cc2)c(-c2ccccc2)[nH]1` [Example 11], for which the ED50 was 25 mg/kg in experiment [1] (Rattus norvegicus, Table VII) and > 108 mg/kg in experiment [2] (Table VII).
Regarding `CCOc1ccc(-c2[nH]c([S+]([O-])C(F)(F)F)cc2-c2ccc(F)cc2)cc1` (stereo not drawn) [Example 61], the inhibition in vivo at 9 mg/kg in experiment [1] (setting [3]) was 14%. Further, in experiment [2] (Table VII), the ED50 is > 130 mg/kg.
With `COc1ccc(-c2cc(SC(F)(F)F)[nH]c2-c2cccs2)cc1` [Example 18], the ED50 in experiment [1] (Rattus norvegicus, Table VIII) was ~100 mg/kg; in experiment [2] (Table VIII), 78 mg/kg.
In the case of `CSc1cc(-c2ccc(Cl)cc2)c(-c2ccc(F)cc2)[nH]1` [Example 43], the ED50 was 20 mg/kg in experiment [1] (Rattus norvegicus, Table VII) and > 108 mg/kg in experiment [2] (Table VII).
Take `CCS(=O)(=O)c1cc(-c2ccc(Cl)cc2)c(-c2ccc(Cl)cc2)[nH]1` [Example 65]: in experiment [1] (Rattus norvegicus, Table VII, oral, dose 27 mg/kg, read-out: percent reduction in paw volume at the indicated dose), the inhibition in vivo at 27 mg/kg was determined as 23%. Besides, the ED50 in experiment [2] (Table VII) was > 108 mg/kg.
As for `CCOc1ccc(-c2[nH]c(S(=O)(=O)C(F)(F)F)cc2-c2ccc(F)cc2)cc1` [Example 60], the ED50 in experiment [1] (Rattus norvegicus, Table VII) is 16 mg/kg; in experiment [2] (Table VII) it was > 130 mg/kg.
The corresponding values for `[O-][S+](c1cc(-c2ccc(Cl)cc2)c(-c2ccc(Cl)cc2)[nH]1)C(F)(F)F` (stereo not drawn) [Example 59] are 2.7 mg/kg and > 135 mg/kg.
Turning to `O=C(c1ccccc1)n1c(SC(F)(F)F)cc(-c2ccc(F)cc2)c1-c1ccc(F)cc1` [Example 76, 1-Benzoyl-4,5-bis(4-fluorophenyl)-2-(trifluoromethylthio)pyrrole], the ED50 in experiment [1] (Rattus norvegicus, Table VIII) is 6.6 mg/kg; in experiment [2] (Table VIII), > 108 mg/kg.
In the case of `CSc1cc(-c2ccc(F)cc2)c(-c2ccc(Cl)cc2)[nH]1` [Example 44], the ED50 was 25 mg/kg in experiment [1] (Rattus norvegicus, Table VII) and > 108 mg/kg in experiment [2] (Table VII).
The corresponding values for `Cc1ccc(-c2cc(SC(F)(F)F)[nH]c2-c2ccc(C)cc2)cc1` [Example 12] are 25 mg/kg and 16.2 mg/kg.
Consider `COc1ccc(-c2[nH]c(SC(F)(F)F)cc2-c2ccccc2)cc1` [Example 20], for which the “Adjuvant Arthritis, value in parenthesis (percent reduction in paw volume/dose)” value in experiment [1] (Table VIII, oral) is 44%. The molecule also came in with a median effective dose (ED50) in experiment [2] (Table VIII) of 22 mg/kg.
For `CCOc1ccc(-c2[nH]c(S(C)(=O)=O)cc2-c2ccc(F)cc2)cc1` [Example 63], in experiment [1] (Rattus norvegicus, Table VII, oral, dose 25 mg/kg, read-out: percent reduction in paw volume at the indicated dose), the inhibition in vivo at 25 mg/kg was determined as 34%. In addition, the ED50 in experiment [2] (Table VII) is > 108 mg/kg.
On to `FC(F)(F)Sc1cc(-c2ccccc2)c(-c2cccnc2)[nH]1` [Example 17], for which the ED50 in experiment [1] (Rattus norvegicus, Table VIII) is 1.4 mg/kg; in experiment [2] (Table VIII), > 108 mg/kg.
